# Measurements: article PMC6158578, “Optimization and Lead Selection of Benzothiazole Amide Analogs Toward a Novel Antimycobacterial Agent” (Frontiers in Microbiology, 2018)
# Where two headings read alike, the source gives them in different places.
# What was measured:
# [1] = system: M. fortuitum 41; assay: MIC, broth microdilution with resazurin (MHB, 3 days); assay type: cell-based; settings: Mycolicibacterium fortuitum, 41
# [2] = 50% complement-inactivated human serum
# [3] = system: P. aeruginosa ATCC 35151; assay: MIC, spectrum of activity; assay type: cell-based; settings: Pseudomonas aeruginosa, ATCC35151
# [4] = system: C. albicans ATCC 10231; assay: MIC, spectrum of activity; assay type: cell-based; settings: Candida albicans, ATCC10231
# [5] = system: M. avium complex (MAC); assay: MIC against MAC; assay type: cell-based; settings: Mycobacterium avium, read-out: MIC against MAC
# [6] = system: M. abscessus 1; assay: MIC in MHB versus 7H9+OADC; assay type: cell-based
# [7] = system: M. tuberculosis H37Rv mc^2 6206; assay: microbe, parasite or virus in culture; assay type: cell-based; settings: Mycobacterium tuberculosis
# [8] = system: M. abscessus (n = 20) clinical isolates; assay: MIC against rapid-growing NTM clinical isolates; assay type: cell-based; settings: for MIC range: M. abscessus (n = 20); for MIC90: Mycobacteroides abscessus
# [9] = system: M. fortuitum (n = 11) clinical isolates; assay: MIC against rapid-growing NTM clinical isolates; assay type: cell-based; settings: for MIC range: M. fortuitum (n = 11); for MIC90: Mycolicibacterium fortuitum
# [10] = system: M. abscessus 79; assay: MIC in MHB versus 7H9+OADC; assay type: cell-based
# [11] = system: M. abscessus ATCC 19977; assay: MIC, broth microdilution with resazurin (MHB, 3 days); assay type: cell-based; settings: Mycobacteroides abscessus, ATCC19977
# [12] = system: M. avium 101; assay: MIC, Middlebrook medium (7H9 + OADC, 7 days); assay type: cell-based; settings: Mycobacterium avium, 101, 168 h
# [13] = system: M. chimaera 1502055; assay: MIC, Middlebrook medium (7H9 + OADC, 7 days); assay type: cell-based; settings: 1502055, 168 h
# [14] = system: Mabs 21; assay: Time-kill assay; assay type: cell-based, M. abscessus; settings: 10x MIC
# [15] = assay type: cell-based
# [16] = system: S. aureus ATCC 29213; assay: MIC, spectrum of activity; assay type: cell-based; settings: Staphylococcus aureus, ATCC29213
# [17] = system: M. abscessus 21; assay: MIC in MHB versus 7H9+OADC; assay type: cell-based
# [18] = system: M. chelonae 93; assay: MIC, broth microdilution with resazurin (MHB, 3 days); assay type: cell-based; settings: Mycobacteroides chelonae, 93
# [19] = system: CYP3A; assay: CYP inhibition in human liver microsomes; assay type: in vitro ADME
# Description: (§1) ADMET assays were performed through NIAID Preclinical Services and Eurofins. Potential for cytotoxicity was monitored in HepG2 cells after 72 h growth in the presence of test compounds, either prepared as 10-point 3-fold serial dilutions or at a fixed 10 μM concentration. Cell viability was measured using the CellTiter-Glo® Luminescent Cell Viability Assay (Promega) or via fluorescent image analysis. Cytotoxicity was expressed as IC50 or as percent reduction of viable cells relative to a reference compound. Metabolic stability of compounds was evaluated via incubation with human liver microsomes at 37°C and quantitative analysis of parent compound by LC-MS/MS in samples removed at 0, 5, 15, 30, and 45 min (Obach, [1999]). For cytochrome P450 (CYP) inhibition assays, compounds were prepared as a 7-point dilution series and incubated with human liver microsomes in buffer containing 2 mM NADPH and probe substrate. […] Thermodynamic solubility of compounds in aqueous media was determined by incubation in 50 mM potassium phosphate buffer (pH 7.4) for 24 h, followed by HPLC-UV detection of compound in the filtrate (Analiza, Cleveland, OH, United States).
# [20] = biological target: T1, CYP2B6 (Homo sapiens, UniProt P20813); assay: CYP inhibition in human liver microsomes; assay type: in vitro ADME
# T1 construct: incubated with human liver microsomes in buffer containing 2 mM NADPH and probe substrate; from tissue; host or cells: human liver microsomes
# T1 sequence (P20813 1-491): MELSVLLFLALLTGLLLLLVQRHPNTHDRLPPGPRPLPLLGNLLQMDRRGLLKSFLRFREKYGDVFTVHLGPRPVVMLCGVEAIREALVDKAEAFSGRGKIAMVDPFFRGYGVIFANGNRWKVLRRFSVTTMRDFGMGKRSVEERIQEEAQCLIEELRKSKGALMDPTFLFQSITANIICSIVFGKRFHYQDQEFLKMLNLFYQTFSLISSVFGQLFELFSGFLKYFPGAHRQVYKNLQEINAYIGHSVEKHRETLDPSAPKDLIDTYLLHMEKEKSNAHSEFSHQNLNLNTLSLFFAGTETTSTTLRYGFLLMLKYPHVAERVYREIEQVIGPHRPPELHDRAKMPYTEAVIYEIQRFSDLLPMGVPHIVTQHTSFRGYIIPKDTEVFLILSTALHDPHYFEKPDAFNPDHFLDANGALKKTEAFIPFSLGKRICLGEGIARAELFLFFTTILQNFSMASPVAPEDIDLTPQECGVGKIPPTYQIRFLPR
# Description: as §1
# [21] = system: E. faecalis ATCC 29212; assay: MIC, spectrum of activity; assay type: cell-based; settings: Enterococcus faecalis, ATCC29212
# [22] = system: M. peregrinum ATCC 700686; assay: MIC, broth microdilution with resazurin (MHB, 3 days); assay type: cell-based; settings: Mycolicibacterium peregrinum, ATCC700686
# [23] = physchem; assay type: physicochemical; settings: pH 7.4, aqueous buffer, thermodynamic from solid
# Description: as §1
# [24] = system: S. pyogenes ATCC 19615; assay: MIC, spectrum of activity; assay type: cell-based; settings: Streptococcus pyogenes, ATCC19615
# [25] = system: E. coli tolC CGSC 5633 (efflux mutant strain); assay: microbe, parasite or virus in culture; assay type: cell-based; settings: Escherichia coli
# [26] = system: M. chelonae (n = 11) clinical isolates; assay: MIC against rapid-growing NTM clinical isolates; assay type: cell-based; settings: for MIC range: M. chelonae (n = 11); for MIC90: Mycobacteroides chelonae
# [27] = system: S. pneumoniae ATCC 49619; assay: MIC, spectrum of activity; assay type: cell-based; settings: Streptococcus pneumoniae, ATCC49619
# [28] = system: E. coli ATCC 25922 + PMBN (permeabilized); assay: MIC, spectrum of activity; assay type: cell-based; settings: Escherichia coli, ATCC25922
# [29] = system: M. abscessus massiliense 119; assay: MIC, broth microdilution with resazurin (MHB, 3 days); assay type: cell-based; settings: Mycobacteroides abscessus
# [30] = system: M. intracellulare 1956; assay: MIC, Middlebrook medium (7H9 + OADC, 7 days); assay type: cell-based; settings: Mycobacterium intracellulare, 1956, 168 h
# [31] = system: Other NTM (n = 12); assay: MIC against rapid-growing NTM clinical isolates; assay type: cell-based; settings: for MIC range: Other NTM (n = 12)
# [32] = HepG2 cytotoxicity, 72 h; assay type: cell-based; settings: human, HepG2 cells, HepG2, 72 h, read-out: HepG2 cytotox., IC50
# Description: as §1
# [33] = system: rapid-growing NTM; assay: MIC against rapid-growing NTM; assay type: cell-based; settings: read-out: MIC values against rapid-growing NTM
# [34] = system: Anaerobes (n > 20 strains); assay: organism not typed; assay type: cell-based
# [35] = system: M. abscessus; set-up: method as in Graham et al., 2018; settings: SAR of CRS400153 analogs; ref Graham et al., 2018; cited from earlier work
# [36] = system: mycolic acid transfer in Mabs ATCC19977; assay: Metabolic labeling with [14C]acetate; assay type: cell-based, M. abscessus; settings: 2x and 10x MIC
# [37] = system: Mtb intact cells and inverted membrane vesicles; assay type: cell-based, M. tuberculosis
structure (smiles),measurement,setting,value
CC12CCCC(C(=O)Nc3nc4cc(Cl)cc(Cl)c4s3)(CCC1)C2 [CRS400393],MIC,[1],0.06 µg/mL
same,Protein (serum) binding,[2],>95%
same,MIC,[3],64 µg/mL
same,MIC,[4],> 64 µg/mL
same,MIC,[5],1 to 2 µg/mL
same,MIC,"[6]; M. abscessus 1, 7H9 + OADC (5 mg/mL albumin)",1 µg/mL
same,MIC,"[6]; M. abscessus 1, MHB",0.06 µg/mL
same,MIC,[7]; 168 h,≤ 0.12 µg/mL
same,MIC,[7]; read-out: MIC against Mtb,≤ 0.12 µg/mL
same,MIC range,[8],≤ 0.03 to 0.25 µg/mL
same,MIC90,[8],0.25 µg/mL
same,MIC range,[9],≤ 0.03 to 0.5 µg/mL
same,MIC90,[9],0.25 µg/mL
same,MIC,"[10]; M. abscessus 79, 7H9 + OADC (5 mg/mL albumin)",0.5 µg/mL
same,MIC,"[10]; M. abscessus 79, MHB",0.03 µg/mL
same,MIC,[11],0.03 µg/mL
same,MIC,[12],2 µg/mL
same,MIC,[13],1 µg/mL
same,"time-kill kinetics, result in words",[14],bactericidal activity
same,drop in Mabs in time-kill assay,[14]; after 5 days,2 Log10 CFU
same,effect against Mabs in time-kill assay,[14]; for 3 days,bacteriostatic
same,interaction when combined with other antimycobacterial agents,[15],additivity and no antagonism
same,MIC,[16],> 64 µg/mL
same,MIC,"[17]; M. abscessus 21, 7H9 + OADC (5 mg/mL albumin)",1 µg/mL
same,MIC,"[17]; M. abscessus 21, MHB",0.03 µg/mL
same,MIC,[18],0.03 µg/mL
same,inhibition at 10 µM,[19],26%
same,inhibition at 10 µM,[20],39%
same,MIC,[21],> 64 µg/mL
same,MIC,[22],0.03 µg/mL
same,solubility at 24 h,[23],< 3 µM
same,MIC,[24],> 64 µg/mL
same,MIC,[25],64 µg/mL
same,MIC range,[26],0.12–0.12 μg/mL
same,MIC90,[26],0.12 µg/mL
same,MIC,[27],32 µg/mL
same,MIC,[28],> 64 µg/mL
same,MIC,[29],0.03 µg/mL
same,MIC,[30],2 µg/mL
same,MIC90,[31],0.5 µg/mL
same,MIC range,[31],0.12 to 0.5 µg/mL
same,IC50 at 72 h,[32],> 10 µM
same,IC50 at 72 h,[32]; value in brackets,> 4 µg/mL
same,MIC,[33],0.03 to 0.5 µg/mL
same,MIC,[34],> 32 µg/mL
CC1CC(C(=O)Nc2nc3c(F)cc(F)cc3s2)CC(C)(C)C1 (stereo not shown) [CRS400153],MIC,[1],0.25 µg/mL
same,Protein (serum) binding,[2],>95%
same,MIC,[3],> 64 µg/mL
same,MIC,[7]; 168 h,1 µg/mL
same,MIC against M. abscessus,[35],0.5 µg/mL
same,MIC range,[8],0.5 to 2 µg/mL
same,MIC90,[8],1 µg/mL
same,MIC range,[9],0.5–0.5 μg/mL
same,MIC90,[9],0.5 µg/mL
same,MIC,[11],0.5 µg/mL
same,MIC,[12],16 µg/mL
same,effect on mycolic acid transfer to arabinogalactan and trehalose dimycolates,[36],concentration-dependent inhibition of mycolic acid transfer
same,MIC,[16],> 64 µg/mL
same,effect on membrane potential and electrochemical pH gradient,[37],no effect
same,MIC,[18],0.25 µg/mL
same,MIC,[21],> 64 µg/mL
same,MIC,[22],0.12 µg/mL
same,solubility at 24 h,[23],3 µM
same,MIC,[24],> 64 µg/mL
same,MIC,[25],> 64 µg/mL
same,MIC range,[26],0.5 to 1 µg/mL
same,MIC90,[26],1 µg/mL
same,MIC,[27],8 µg/mL
same,MIC,[28],> 64 µg/mL
same,MIC,[29],0.5 µg/mL
same,MIC,[30],8 µg/mL
same,MIC90,[31],1 µg/mL
same,MIC range,[31],0.25 to 1 µg/mL
